Patent US10183047B2, “Chromium-containing compositions in combination with Phyllanthus emblica and shilajit having synergistic effects for improving endothelial function and cardiovascular health” (Natreon, Inc., priority 2014, dated 2019)

Experiments:
Format in all cases: in vivo, human
fasting plasma glucose [1] = assay: Fasting plasma glucose, metabolic syndrome subjects; conditions: for Fasting Glucose: MS, 400 mcg; for Fasting Plasma Glucose Post Tt / Fasting Plasma Glucose Pre Tt: metabolic syndrome subjects (Example 4), chromium products 400 mcg; for Fasting Plasma Glucose Post Tt: after 12 weeks of treatment; for Fasting Plasma Glucose Pre Tt: pre-treatment
Source text: (§1) Patients included in the study, were of either gender, aged 30-68 years, having endothelial dysfunction defined as ≤6% change in reflection index (RI) on post salbutamol challenge test and central obesity as defined by The International Diabetes Federation guidelines, dated 2006, and any two of the following conditions:
(§2) After screening, all the eligible subjects were randomized to receive either one of the three treatments orally for duration of 12 weeks: group 1—one capsule of Crominex®3+ 200 mcg once daily; group 2—one capsule 400 mcg once daily; group 3—one capsule of Placebo once daily.
(§3) Subjects were reviewed for follow up at 4 weeks, 8 and 12 weeks of therapy. At each visit they were evaluated for efficacy and safety. Pharmacodynamic evaluation for endothelial function was conducted at baseline and end of treatment. Blood samples were collected for evaluation of biomarkers before and at end of treatment. Safety lab investigations for hematological, hepatic and renal biochemical parameters were conducted before and at the end of the study and also as and when required (in case of any adverse drug reaction (ADR)). Subjects were enquired for the presence of ADR and the same was recorded in the case report form. Compliance to therapy was assessed by pill count method.
(§4) When the results with Crominex® 3+ in the above two examples were highly significant, especially with the 400 mcg once daily dose in type 2 diabetics, two more clinical studies (EXAMPLES 3 & 4) were conducted at the same institute, following the same methodology as described earlier, on the individual components of Crominex® 3+, i.e., chromium chloride and Phyllanthus emblica+Shilajit, and other chromium supplements available in the market, i.e., chromium picolinate, chromium polynicotinate and chromium dinicocysteinate, in type 2 diabetics as well as in subjects with metabolic syndrome symptoms.

malondialdehyde (MDA) = assay: Malondialdehyde level, metabolic syndrome subjects; conditions: for MDA: MS, 400 mcg; for MDA Post Tt / Mean percentage change in MDA / MDA Pre Tt: metabolic syndrome subjects (Example 4), chromium products 400 mcg; for MDA Post Tt: after 12 weeks of treatment; for Mean percentage change in MDA: after 12 weeks treatment; for MDA Pre Tt: pre-treatment
Procedure: Nitric oxide, MDA, Glutathione and levels were estimated spectrophotometrically as follows. Malondialdehyde (MDA) levels were determined as described in Vidyasagar, et al., “Oxidative stress and antioxidant status in acute organophosphorous insecticide poisoning,” Indian J. Pharmacol. (April 2004) 36(2): 76-79. Glutathione levels were determined as described in G. L. Ellman, Arch. Biochem. Biophys. (1959) 82: 70-77 (original determination). Nitric oxide levels were estimated spectrophotometrically as described in Miranda, et al., “A Rapid, Simple Spectrophotometric Method for Simultaneous Detection of Nitrate and Nitrite,” NITRIC OXIDE: Biology and Chemistry (2001) Vol. 5, No. 1, pp. 62-71. hsCRP (high sensitivity C-reactive protein) was determined by ELISA method.
as §1, §2, §3
Assessment of endothelial function, biomarkers, safety parameters and primary and secondary efficacy parameters and data analysis were performed as described under the study with type 2 diabetic subjects in Example 1.
as §4

fasting plasma glucose [2] = assay: Fasting plasma glucose, type 2 diabetics; conditions: for Fasting Glucose: DM, 400 mcg; for Fasting Plasma Glucose Post Tt / Fasting Plasma Glucose Pre Tt: type 2 diabetics (Example 3), chromium products 400 mcg; for Fasting Plasma Glucose Post Tt: post-treatment, 12 weeks; for Fasting Plasma Glucose Pre Tt: pre-treatment
Procedure: as §4

Compound | Fasting Glucose (fasting plasma glucose [1]) [%] | Fasting Plasma Glucose Post Tt (fasting plasma glucose [1]) | Fasting Plasma Glucose Pre Tt (fasting plasma glucose [1]) | MDA (malondialdehyde (MDA)) [%] | MDA Post Tt (malondialdehyde (MDA)) [nM/ml] | Mean percentage change in MDA (malondialdehyde (MDA)) [%] | MDA Pre Tt (malondialdehyde (MDA)) [nM/ml] | Fasting Glucose (fasting plasma glucose [2]) [%] | Fasting Plasma Glucose Post Tt (fasting plasma glucose [2]) | Fasting Plasma Glucose Pre Tt (fasting plasma glucose [2])
O.O.O.O.O.O.[Cl][Cr]([Cl])[Cl] [Chromium chloride, Chromium chloride (CrCl3.6H2O)] | −2.7 | 101.32 ± 16.51 NS | 104.16 ± 14.92 | −4.65 | 3.76 ± 0.42 | −4.65 ± 1.95 | 3.94 ± 0.42 | 0.87 | 134.21 ± 9.32 NS mg/dL | 133.05 ± 7.95 mg/dL
chromium dinicocysteinate | −2.18 | 99.50 ± 17.60 NS | 101.72 ± 21.41 | −6.7 | 3.74 ± 0.42 | −6.67 ± 1.47 | 4.00 ± 0.42 | −3.2 | 132.3 ± 4.41 $ mg/dL | 136.8 ± 6.99^ mg/dL
chromium polynicotinate | −4.14 | 95.95 ± 13.32 NS | 100.10 ± 14.00 | −5.4 | 3.83 ± 0.41 | −5.38 ± 1.31 | 4.04 ± 0.40 | 0.63 | 136.3 ± 7.86 NS mg/dL | 135.45 ± 7.45 mg/dL
chromium picolinate | −4.27 | 96.63 ± 13.11 @ | 100.95 ± 14.05 ^ | −7.1 | 3.60 ± 0.46 | −7.14 ± 1.70 | 3.87 ± 0.47 | 1.2 | 134.84 ± 6.78 NS mg/dL | 133.21 ± 8.27 mg/dL
